Several values for one entry are separate records, joined by “and”; a condition that tells them apart may be missing. Identical values can stand only once. ± gives the uncertainty stated by the source. One block for each compound: values may come before it.
viscosity (298.15 K, 101 kPa): 0.563 ± 0.015 mPa·s
SMILES: CC(C)CN

viscosity (303.15 K, 101 kPa): 13700 ± 1300 mPa·s | viscosity (308.15 K, 101 kPa): 7300 ± 640 mPa·s | viscosity (313.15 K, 101 kPa): 3960 ± 320 mPa·s | viscosity (318.15 K, 101 kPa): 2260 ± 160 mPa·s | viscosity (323.15 K, 101 kPa): 1370 ± 90 mPa·s
SMILES: CC(O)C(=O)[O-].CN(C)C(=N)[NH+](C)C

viscosity (298.15 K, 101 kPa): 35.41 ± 0.43 mPa·s | viscosity (323.15 K, 101 kPa): 14.38 ± 0.2 mPa·s
SMILES: CCCCCCCC/C=C\CCCCCCCC(=O)O

viscosity (298.15 K, 100 kPa): 96.87 ± 4.1 mPa·s and 95.9 ± 2.1 mPa·s | viscosity (298.15 K, 101 kPa): 95.9 ± 1.4 mPa·s and 95.5 ± 2.7 mPa·s | viscosity (303.15 K, 100 kPa): 76.51 ± 3.2 mPa·s and 75.7 ± 1.6 mPa·s | viscosity (303.15 K, 101 kPa): 75.63 ± 0.97 mPa·s and 75.4 ± 2 mPa·s | viscosity (308.15 K, 100 kPa): 61.6 ± 2.5 mPa·s | viscosity (313.15 K, 100 kPa): 61.6 ± 2.5 mPa·s | viscosity (313.15 K, 101 kPa): 49.45 ± 0.51 mPa·s | viscosity (318.15 K, 100 kPa): 50.5 ± 2.1 mPa·s | viscosity (323.15 K, 100 kPa): 35.03 ± 1.5 mPa·s | viscosity (323.15 K, 101 kPa): 34.24 ± 0.33 mPa·s
SMILES: CCOS(=O)(=O)[O-].CC[n+]1ccn(C)c1

SMILES: O=C1CCCN1
viscosity (304.15 K, 101.33 kPa): 10.5 ± 0.28 mPa·s | viscosity (308.15 K, 101.33 kPa): 9.102 ± 0.24 mPa·s | viscosity (313.15 K, 101.33 kPa): 7.687 ± 0.2 mPa·s | viscosity (318.15 K, 101.33 kPa): 6.593 ± 0.17 mPa·s | viscosity (323.15 K, 101.33 kPa): 5.666 ± 0.15 mPa·s

viscosity (313.15 K, 101.3 kPa): 77.17 ± 1.5 mPa·s
SMILES: OCCC1CCCCN1 (centres undefined)

— the CheMixHub viscosity set
